{"source": "patent US12606833B2", "about": "“Modified mini-nucleosome core proteins and use in nucleic acid delivery” (priority 2020, dated 2026)", "key": {"skeletal muscle cells": {"test_system": "skeletal muscle cells", "test": "GFP expression in leg muscle after intramuscular injection (dystrophin immunolabeling)", "type": "in vivo, Balb/c mice", "conditions": "17.5 μg per leg, 3-month time point, FIG. 18", "procedure": "Balb/c mice were anesthetized by IP injection with Ketamine/Xylazine (90-100 mg/kg+10 mg/kg) and several loaded mini-nucleosomes were injected into both leg muscle at 17.5 μg doses per leg using an insulin syringe (Total dose 35 micrograms per mice). Mice were sacrificed at various time points and leg muscle were obtained for tissue sections. […] One skilled in the art may contemplate combining such domains with other domains known for muscle tropism.\nTo validate muscle specificity of expression of genes encoded by the nucleic acid cargo, we utilized dystrophin immunolabeling as an endogenous secondary marker. […] Native fluorescence of GFP was obtained in the 486-nm channel of Leica SP5 scope. Dystrophin in red is the RFP channel (555-nm). Untransduced muscle cells in figure also serve as internal control for differentiation between GFP signal and autofluorescence."}, "retina and RPE cells": {"test_system": "retina and RPE cells", "test": "GFP expression in retina and RPE after intravitreal injection in mice", "type": "in vivo, Balb/c mice", "conditions": "1.5 micrograms, GFP plasmid, FIGS. 10 and 12", "procedure": "In the present Example, Balb/c mice were anesthetized by IP injection with Ketamine/Xylazine (90-100 mg/kg+10 mg/kg) and positioned underneath a microscope. Mice eyes were dilated with topical Tropicamide (1%) and 1 μl of loaded mini-nucleosomes (total dose 1.5 micrograms in mice) were injected into the vitreous cavity using 32 gauge blunt needle passing through the incision made by a 25-gauge needle below the limbus. At various time points, mice were perfused with 10 ml of 1xPBS, and then sacrificed using standard techniques. Mice were enucleated and eyecups were collected and incubated in 4% paraformaldehyde overnight. The eyecups were washed with 1xPBS, then immersed in 15% sucrose for few hours and then in 30% sucrose solution overnight for cryopreservation. The eyecups were then placed in a plastic vial and frozen using OCT compound for cryo-sectioning. 10-micron thick tissue sections were obtained for staining. The retinal sections were mounted with mounting media with or without DAPI, coverslip and sealed. Images were acquired by Leica SP5. For wholemount imaging, eyecups were fixed in 4% paraformaldehyde overnight. Eyecups were washed in 1xPBS, retina was removed and the remaining eyecup or RPE wholemount was processed for staining. The RPE tissue was wholemounted with mounting media, coverslip and sealed. Images were acquired by Leica SP5."}, "lung epithelium": {"test_system": "lung epithelium", "test": "GFP expression after intranasal delivery (lung sections with CFTR staining, whole lung imaging, trachea)", "type": "in vivo, Balb/c mice", "conditions": "5-week post injection, FIGS. 15 and 16", "procedure": "In the present Example, Balb/c mice were anesthetized by IP injection with Ketamine/Xylazine (90-100 mg/kg+10 mg/kg) and the anesthetized mice were positioned underneath a microscope for visual of the nasal area for intranasal delivery. 1 μl of loaded mini-nucleosome (SEQ ID NO: 390+GFP plasmid) solution was delivered into the nasal cavity every few seconds until 12 microliters were delivered to each nasal side. Total dose of 25 micrograms was delivered. Following sacrifice, mice lung was processed to obtain 10 micron thick sections. Sections were washed in PBS and incubated in blocking buffer (0.1% TritonX-100, 1% BSA, 3% donkey serum) for 1 hr and then incubated in CFTR antibody (prepared on blocking buffer) blocking buffer overnight at 4 degree Celsius. Next day wash in PBS 3×5 min and incubated in AlexaFlour-555 (Donkey Anti-rabbit IgG secondary) in blocking buffer at RT for 1 hour and washed in PBS 3×5 min. Mounting media was added and coverslip was applied and sealed. Native fluorescence of GFP was obtained in the 486 nm channel of Leica SP5 scope in the 486-nm wavelength and CFTR expression in the 555-nm channel.\nIn the present Example, whole lung tissue and biodistribution via mini-nucleosome was also evaluated (FIG. 15). […] Whole tissues were placed in the Odyssey imager for detecting GFP native fluorescence."}, "RPE cells": {"test_system": "RPE cells", "test": "GFP expression in rat retinal tissue after intraocular delivery", "type": "in vivo", "conditions": "rat eyes, FIG. 11", "source_text": "To selectively transduce photoreceptors, the present Example utilized core proteins like those of SEQ ID NO:394. […] This neuronal attachment domain has not been previously applied for non-viral vectors to target neurons. The present disclosure provides that this neuronal targeted vector can transduce neurons in the brain via local or systemic administration. The present disclosure further provides for targeting photoreceptor binding and internalization by incorporating lectin binding domains (described in Table 4) in mini-nucleosomes for attachment to photoreceptor extracellular matrix to enhance uptake. […] Moreover, more than one domain could be utilized to selectively transduce a plurality of diverse cell types. This core protein (SEQ ID NO: 390) with integrin binding properties may also be utilized for delivery of nucleic acids to other cell types that express high levels of aVB5 integrin. The present disclosure further provides use of other intra-ocular injection techniques such as subretinal, suprachoroidal, intra-cameral, or topical administration to target photoreceptors, RPE, Mueller cells or other cell types in the retina."}, "[1]": {"test": "Transmission Electron Microscopy (TEM) of loaded mini-nucleosomes", "type": "physicochemical", "conditions": "luciferase plasmid (SEQ ID NO: 396) condensed with core protein, formulated in water", "method": "To form loaded mini-nucleosomes represented in FIG. 7, core proteins were synthesized by solid phase synthesis using trifluoroacetate buffers. 200 micrograms of DNA (SEQ ID NO: 396) were added to 1 milligram of lyophilized core proteins and vortexed together, and purified to produce loaded mini-nucleosomes (FIG. 7). Buffer exchange was performed and final formulation of mini-nucleosome was made in sterile, endotoxin free water. 1 microgram of each kind of mini-nucleosomes was diluted in water and then placed on grids that were stained with freshly prepared in 0.75% uranyl acetate in methanol solution for two minutes. Grids were dipped in 100% ethanol and then blotted into lens absorbent paper. The grids were then air-dried for few minutes with film side up and taken for imaging with Hammatsu ORCA HR camera (FIG. 7)."}}, "note": "Where no end group is shown, it is not given here. [ ]: non-standard residue; d: D form. LINKER = not defined here", "data": [{"substance": "KKKRHRKRKRKRKRRRRKKK-[LINKER]-ASSLNIAK-[LINKER]-RRRR (KKKRHRKRKRKRKRRRRKKK[LINKER]ASSLNIAK[LINKER]RRRR; not fully specified; numbers in words are those of the source; reading uncertain; also: linkers of unspecified length between segments (after 20 and 28)) [SEQ ID NO: 389]", "values": [{"measurement": "GFP fluorescence in muscle tissue sections", "setting": "skeletal muscle cells", "value": "didn't exhibit GFP fluorescence"}]}, {"substance": "KKRHRK-[LINKER]-LRE-[LINKER]KRHRKLRRRRRLKRHRKKRHRK-[LINKER]-LRE-[LINKER]-K (KKRHRK[LINKER]LRE[LINKER]KRHRKLRRRRRLKRHRKKRHRK[LINKER]LRE[LINKER]K; not fully specified; numbers in words are those of the source; reading uncertain; also: linkers of unspecified length between segments (after 6, 9, 31, 34)) [SEQ ID NO: 394]", "values": [{"measurement": "GFP expression / uptake in mouse retina and RPE", "setting": "retina and RPE cells", "value": "transduction into ganglion cells, bipolar cells and photoreceptors"}]}, {"substance": "KKKRK-[LINKER]-KTKKK-[LINKER]-AK-[LINKER]-KALKKK-[LINKER]-KKGKKKKRRRRKAAPKK (KKKRK[LINKER]KTKKK[LINKER]AK[LINKER]KALKKK[LINKER]KKGKKKKRRRRKAAPKK; not fully specified; numbers in words are those of the source; reading uncertain; also: linkers of unspecified length between segments (after 5, 10, 12, 18)) [SEQ ID NO: 392]", "values": [{"measurement": "GFP expression / uptake in mouse retina and RPE", "setting": "retina and RPE cells", "value": "enhanced uptake into the RPE"}]}, {"substance": "KKKRK-[LINKER]-NGR-[LINKER]-KRKRKKRHRKKKKRRRRKRHRK-[LINKER]-NGR-[LINKER]-KKK (KKKRK[LINKER]NGR[LINKER]KRKRKKRHRKKKKRRRRKRHRK[LINKER]NGR[LINKER]KKK; not fully specified; numbers in words are those of the source; reading uncertain; also: linkers of unspecified length between segments (after 5, 8, 30, 33)) [SEQ ID NO: 390]", "values": [{"measurement": "GFP native fluorescence in whole lung tissue / sustained expression", "setting": "lung epithelium", "value": "high levels of sustained expression"}, {"measurement": "GFP expression in rat retinal tissue", "setting": "RPE cells", "value": "transduce RPE cells in rat eyes exclusively"}, {"measurement": "Shape of loaded mini-nucleosome (TEM)", "setting": "[1]", "value": "rod/lobular shaped"}]}, {"substance": "KKKRHRKKKKK-[LINKER]-RGD-[LINKER]-KKKK-[LINKER]-NTQIH-[LINKER]-RRRRR-[LINKER]-TPH-[LINKER]-KK (KKKRHRKKKKK[LINKER]RGD[LINKER]KKKK[LINKER]NTQIH[LINKER]RRRRR[LINKER]TPH[LINKER]KK; not fully specified; numbers in words are those of the source; reading uncertain; also: linkers of unspecified length between segments (after 11, 14, 18, 23, 28, 31)) [SEQ ID NO: 391]", "values": [{"measurement": "Shape of loaded mini-nucleosome (TEM)", "setting": "[1]", "value": "mixture of circular and rod like molecules"}, {"measurement": "GFP fluorescence in muscle tissue sections", "setting": "skeletal muscle cells", "value": "sharp green fluorescence in skeletal muscle cells"}]}]}
